Results reported in PubChem BioAssay (NCI).
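Dose response: 5 concentrations. Exposure: 48 h. Format: 96-well plates. Endpoint: linear interpolation; highest concentration if not reached. At the TGI there is no net growth.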

Tests used:
Experiment in all cases: growth of human tumour cells (NCI), 48 h
A498 renal = system: A498 renal
CCRF-CEM leukemia = system: CCRF-CEM leukemia
COLO 205 colon = system: COLO 205 colon
HOP-62 NSCLC = system: HOP-62 NSCLC
K-562 leukemia = system: K-562 leukemia
M14 melanoma = system: M14 melanoma
NCI-H226 lung = system: NCI-H226 lung
NCI-H23 lung = system: NCI-H23 lung
NCI-H460 lung = system: NCI-H460 lung
NCI/ADR-RES ovarian = system: NCI/ADR-RES ovarian
OVCAR-4 ovarian = system: OVCAR-4 ovarian
SF-268 CNS = system: SF-268 CNS
SF-539 CNS = system: SF-539 CNS
SK-MEL-2 melanoma = system: SK-MEL-2 melanoma
SK-MEL-28 melanoma = system: SK-MEL-28 melanoma
SNB-19 CNS = system: SNB-19 CNS
SR leukemia = system: SR leukemia
T-47D breast = system: T-47D breast
TK-10 renal = system: TK-10 renal
UO-31 renal = system: UO-31 renal

With Cc1ccc(C(=O)O)c(/C=C2\Cc3ccc(C)cc3C2=O)c1 the TGI (A498 renal) was greater than 100 µM, the TGI (CCRF-CEM leukemia) was greater than 100 µM and the TGI (COLO 205 colon) was greater than 100 µM. For the same compound, the TGI (HOP-62 NSCLC) was greater than 100 µM, the TGI (K-562 leukemia) was greater than 100 µM and the TGI (M14 melanoma) was greater than 100 µM. For the same compound, the TGI (NCI-H226 lung) was 85.2 µM, the TGI (NCI-H23 lung) was greater than 100 µM and the TGI (NCI-H460 lung) was greater than 100 µM. It also gave a TGI (NCI/ADR-RES ovarian) greater than 100 µM, a TGI (OVCAR-4 ovarian) greater than 100 µM and a TGI (SF-268 CNS) greater than 100 µM. For the same compound, the TGI (SF-539 CNS) was 49.3 µM, the TGI (SK-MEL-2 melanoma) was greater than 100 µM and the TGI (SK-MEL-28 melanoma) was greater than 100 µM. For the same compound, the TGI (SNB-19 CNS) was greater than 100 µM, the TGI (SR leukemia) was greater than 100 µM and the TGI (T-47D breast) was greater than 100 µM. It also gave a TGI (TK-10 renal) greater than 100 µM and a TGI (UO-31 renal) greater than 100 µM.
Cc1ccc(C(=O)N/N=C(\N=Nc2cccc([N+](=O)[O-])c2)c2ccc(N(CCC#N)CCC#N)cc2C)cc1 showed a TGI (A498 renal) greater than 81.6 µM, a TGI (CCRF-CEM leukemia) greater than 69.2 µM and a TGI (COLO 205 colon) of 20.9 µM. The TGI (HOP-62 NSCLC) was 79.7 µM, the TGI (K-562 leukemia) was greater than 100 µM and the TGI (M14 melanoma) was greater than 67.6 µM. It also gave a TGI (NCI-H226 lung) greater than 26.2 µM, a TGI (NCI-H23 lung) greater than 82.8 µM and a TGI (NCI-H460 lung) greater than 100 µM. It also gave a TGI (NCI/ADR-RES ovarian) greater than 95.4 µM, a TGI (OVCAR-4 ovarian) greater than 100 µM and a TGI (SF-268 CNS) greater than 100 µM. The TGI (SF-539 CNS) was 58.7 µM, the TGI (SK-MEL-2 melanoma) was greater than 77.3 µM and the TGI (SK-MEL-28 melanoma) was greater than 86.3 µM. It also gave a TGI (SNB-19 CNS) greater than 100 µM, a TGI (SR leukemia) greater than 100 µM and a TGI (T-47D breast) of 50.7 µM. The TGI (TK-10 renal) was greater than 100 µM and the TGI (UO-31 renal) was greater than 100 µM.
COc1ccc2c(c1)/C(=C\c1c(Cl)[nH]c3cc(C)c(OC)cc13)C(=O)N2 showed a TGI (A498 renal) of 20.2 µM, a TGI (CCRF-CEM leukemia) greater than 35.5 µM and a TGI (COLO 205 colon) of 5.69 µM. The TGI (HOP-62 NSCLC) was 23 µM, the TGI (K-562 leukemia) was 27.7 µM and the TGI (M14 melanoma) was 5.63 µM. For the same compound, the TGI (NCI-H226 lung) was greater than 100 µM, the TGI (NCI-H23 lung) was 2.9 µM and the TGI (NCI-H460 lung) was 8.7 µM. The TGI (NCI/ADR-RES ovarian) was 4.04 µM, the TGI (OVCAR-4 ovarian) was 16.2 µM and the TGI (SF-268 CNS) was 8.77 µM. It also gave a TGI (SF-539 CNS) of 1.24 µM, a TGI (SK-MEL-2 melanoma) of 18.5 µM and a TGI (SK-MEL-28 melanoma) of 29 µM. It also gave a TGI (SNB-19 CNS) of 12.8 µM, a TGI (SR leukemia) of 2.58 µM and a TGI (T-47D breast) of 40.5 µM. For the same compound, the TGI (TK-10 renal) was 15.9 µM and the TGI (UO-31 renal) was 19.2 µM.
For CCOC(=O)/C=C(\C(=O)OCC)n1cc(C)c(=O)n(Cc2cn(CCCCOC(C)=O)nn2)c1=O, the TGI (A498 renal) was 33 µM, the TGI (CCRF-CEM leukemia) was 5.58 µM and the TGI (COLO 205 colon) was 8.91 µM. The TGI (HOP-62 NSCLC) was 37.4 µM, the TGI (K-562 leukemia) was 9.01 µM and the TGI (M14 melanoma) was 27 µM. It also gave a TGI (NCI-H226 lung) of 17.1 µM, a TGI (NCI-H23 lung) of 27.8 µM and a TGI (NCI-H460 lung) of 26 µM. For the same compound, the TGI (NCI/ADR-RES ovarian) was 57 µM, the TGI (OVCAR-4 ovarian) was 53.1 µM and the TGI (SF-268 CNS) was 28.4 µM. The TGI (SF-539 CNS) was 5.17 µM, the TGI (SK-MEL-2 melanoma) was 36.4 µM and the TGI (SK-MEL-28 melanoma) was 31.7 µM. For the same compound, the TGI (SNB-19 CNS) was 47.3 µM, the TGI (SR leukemia) was 14.5 µM and the TGI (T-47D breast) was greater than 47.5 µM. The TGI (TK-10 renal) was 18.5 µM and the TGI (UO-31 renal) was 27.5 µM.
O=C(O)c1c2c(cc3c1CC(Cc1ccccc1)C3=O)CCC2 (stereo not given) gave a TGI (A498 renal) greater than 100 µM, a TGI (CCRF-CEM leukemia) greater than 100 µM and a TGI (COLO 205 colon) greater than 100 µM. It also gave a TGI (HOP-62 NSCLC) greater than 100 µM, a TGI (K-562 leukemia) greater than 100 µM and a TGI (M14 melanoma) greater than 100 µM. For the same compound, the TGI (NCI-H226 lung) was greater than 100 µM, the TGI (NCI-H23 lung) was greater than 100 µM and the TGI (NCI-H460 lung) was greater than 100 µM. It also gave a TGI (NCI/ADR-RES ovarian) greater than 100 µM, a TGI (OVCAR-4 ovarian) greater than 100 µM and a TGI (SF-268 CNS) greater than 100 µM. For the same compound, the TGI (SF-539 CNS) was greater than 100 µM, the TGI (SK-MEL-2 melanoma) was greater than 100 µM and the TGI (SK-MEL-28 melanoma) was greater than 100 µM. It also gave a TGI (SNB-19 CNS) greater than 100 µM, a TGI (SR leukemia) greater than 100 µM and a TGI (T-47D breast) greater than 100 µM. It also gave a TGI (TK-10 renal) greater than 100 µM and a TGI (UO-31 renal) of 30.5 µM.
C/C(=N\NS(=O)(=O)c1ccc(C)cc1)c1ccccn1 showed a TGI (A498 renal) greater than 100 µM, a TGI (CCRF-CEM leukemia) of 78.9 µM and a TGI (COLO 205 colon) of 93.5 µM. For the same compound, the TGI (HOP-62 NSCLC) was greater than 100 µM, the TGI (K-562 leukemia) was greater than 100 µM and the TGI (M14 melanoma) was greater than 100 µM. The TGI (NCI-H226 lung) was greater than 100 µM, the TGI (NCI-H23 lung) was greater than 100 µM and the TGI (NCI-H460 lung) was greater than 100 µM. It also gave a TGI (NCI/ADR-RES ovarian) greater than 100 µM, a TGI (OVCAR-4 ovarian) greater than 100 µM and a TGI (SF-268 CNS) greater than 100 µM. The TGI (SF-539 CNS) was greater than 100 µM, the TGI (SK-MEL-2 melanoma) was greater than 100 µM and the TGI (SK-MEL-28 melanoma) was greater than 100 µM. For the same compound, the TGI (SNB-19 CNS) was greater than 100 µM, the TGI (SR leukemia) was greater than 100 µM and the TGI (T-47D breast) was greater than 100 µM. It also gave a TGI (TK-10 renal) greater than 100 µM and a TGI (UO-31 renal) greater than 100 µM.
Work on CS(=O)(=O)C(C#N)c1nc2ccccc2nc1Cl (stereo not given) yielded a TGI (A498 renal) greater than 100 µM, a TGI (CCRF-CEM leukemia) greater than 100 µM and a TGI (COLO 205 colon) greater than 100 µM. For the same compound, the TGI (HOP-62 NSCLC) was greater than 100 µM, the TGI (K-562 leukemia) was greater than 100 µM and the TGI (M14 melanoma) was greater than 100 µM. It also gave a TGI (NCI-H226 lung) greater than 100 µM, a TGI (NCI-H23 lung) greater than 100 µM and a TGI (NCI-H460 lung) greater than 100 µM. It also gave a TGI (NCI/ADR-RES ovarian) greater than 100 µM, a TGI (OVCAR-4 ovarian) greater than 100 µM and a TGI (SF-268 CNS) greater than 100 µM. For the same compound, the TGI (SF-539 CNS) was greater than 65.9 µM, the TGI (SK-MEL-2 melanoma) was greater than 100 µM and the TGI (SK-MEL-28 melanoma) was greater than 100 µM. It also gave a TGI (SNB-19 CNS) greater than 100 µM, a TGI (SR leukemia) greater than 100 µM and a TGI (T-47D breast) greater than 100 µM. It also gave a TGI (TK-10 renal) greater than 66.5 µM and a TGI (UO-31 renal) greater than 100 µM.
In the case of CS(=O)(=O)Nc1ccc2ccccc2c1-c1c(NS(C)(=O)=O)ccc2ccccc12, the TGI (A498 renal) is reported as greater than 25 µM, the TGI (CCRF-CEM leukemia) is reported as greater than 25 µM and the TGI (COLO 205 colon) is reported as greater than 25 µM. The TGI (HOP-62 NSCLC) was greater than 25 µM, the TGI (K-562 leukemia) was greater than 25 µM and the TGI (M14 melanoma) was greater than 25 µM. The TGI (NCI-H226 lung) was greater than 25 µM, the TGI (NCI-H23 lung) was greater than 25 µM and the TGI (NCI-H460 lung) was greater than 25 µM. The TGI (NCI/ADR-RES ovarian) was greater than 25 µM, the TGI (OVCAR-4 ovarian) was greater than 25 µM and the TGI (SF-268 CNS) was greater than 25 µM. For the same compound, the TGI (SF-539 CNS) was greater than 25 µM, the TGI (SK-MEL-2 melanoma) was greater than 25 µM and the TGI (SK-MEL-28 melanoma) was greater than 25 µM. For the same compound, the TGI (SNB-19 CNS) was greater than 25 µM, the TGI (SR leukemia) was greater than 25 µM and the TGI (T-47D breast) was greater than 25 µM. It also gave a TGI (TK-10 renal) greater than 25 µM and a TGI (UO-31 renal) greater than 25 µM.
Work on O=C(/C=C/c1ccc(O)c(O)c1)OCC(OC(=O)/C=C/c1ccc(O)c(O)c1)C(=O)O (stereo not given) yielded a TGI (A498 renal) greater than 100 µM, a TGI (CCRF-CEM leukemia) greater than 100 µM and a TGI (COLO 205 colon) greater than 100 µM. It also gave a TGI (HOP-62 NSCLC) greater than 100 µM, a TGI (K-562 leukemia) greater than 100 µM and a TGI (M14 melanoma) greater than 100 µM. It also gave a TGI (NCI-H226 lung) greater than 100 µM, a TGI (NCI-H23 lung) greater than 100 µM and a TGI (NCI-H460 lung) greater than 100 µM. For the same compound, the TGI (NCI/ADR-RES ovarian) was greater than 100 µM, the TGI (OVCAR-4 ovarian) was greater than 100 µM and the TGI (SF-268 CNS) was greater than 100 µM. The TGI (SF-539 CNS) was greater than 100 µM, the TGI (SK-MEL-2 melanoma) was greater than 100 µM and the TGI (SK-MEL-28 melanoma) was greater than 100 µM. For the same compound, the TGI (SNB-19 CNS) was greater than 100 µM, the TGI (SR leukemia) was greater than 100 µM and the TGI (T-47D breast) was greater than 100 µM. For the same compound, the TGI (TK-10 renal) was greater than 100 µM and the TGI (UO-31 renal) was greater than 100 µM.
